Measurements taken from patent publication US10624897B2, “Chlorobenzene substituted azaaryl compounds” (TAIPEI MEDICAL UNIVERSITY, priority 2015, dated 2020).

Key:
RT-112 cells = experiment: Western blot of G0/G1 regulatory proteins; format: cell-based; details: 24 h, FIG. 3C
Method: C. […] Apoptosis was assessed via detection of cleaved caspase-3 and PARP.
We observed that genes associated with cell cycle progression were decreased in MPT0L145-treated cells. […] This phenomenon was also observed in the cells treated with BGJ-398 (FIG. 3A). […] Next, we examined expression of G0/G1 regulatory proteins via western blot. […] The possibility of MPT0L145-induced apoptosis was further eliminated by examining cleavage of caspase-3 and its substrate, PARP, in 72 h, compared with paclitaxel (FIG. 3D).

PIP5K1A = target: T1, PIP5K1A (Homo sapiens, UniProt Q99755); experiment: Lipid kinase binding assay (Kd)
T1 construct: made in house; host or cells: E. coli BL21-derived host (T7 phage) or HEK-293
Method: (§1) Kinase assays. For most assays, kinase-tagged T7 phage strains were prepared in an E. coli host derived from the BL21 strain. E. coli were grown to log-phase and infected with T7 phage and incubated with shaking at 32° C. until lysis. The lysates were centrifuged and filtered to remove cell debris. The remaining kinases were produced in HEK-293 cells and subsequently tagged with DNA for qPCR detection. […] The liganded beads were blocked with excess biotin and washed with blocking buffer (SeaBlock (Pierce), 1% BSA, 0.05% Tween 20, 1 mM DTT) to remove unbound ligand and to reduce non-specific binding. […] All reactions were performed in polystyrene 96-well plates in a final volume of 0.135 ml. […] The kinase concentration in the eluates was measured by qPCR.
(§2) An 11-point 3-fold serial dilution of each test compound was prepared in 100% DMSO at 100× final test concentration and subsequently diluted to 1× in the assay (final DMSO concentration=1%). Most Kds were determined using a compound top concentration=30,000 nM.
(§3) Binding constants (Kds) were calculated with a standard dose-response curve using the Hill equation: […]
(§4) The Hill Slope was set to −1. Curves were fitted using a non-linear least square fit with the Levenberg-Marquardt algorithm.

PIKFYVE = target: T2, PIKFYVE (Homo sapiens, UniProt Q9Y2I7); experiment: Lipid kinase binding assay (Kd)
T2 construct: made in house; host or cells: E. coli BL21-derived host (T7 phage) or HEK-293
Method: as §1, §2, §3, §4

PIK3C2B = target: T3, PIK3C2B (Homo sapiens, UniProt O00750); experiment: Lipid kinase binding assay (Kd)
T3 construct: made in house; host or cells: E. coli BL21-derived host (T7 phage) or HEK-293
Method: as §1, §2, §3, §4

PIP5K2B = target: T4, PIP5K2B (Homo sapiens, UniProt P78356); experiment: Lipid kinase binding assay (Kd)
T4 construct: made in house; host or cells: E. coli BL21-derived host (T7 phage) or HEK-293
Method: as §1, §2, §3, §4

PIP5K1C = target: T5, PIP5K1C (Homo sapiens, UniProt O60331); experiment: Lipid kinase binding assay (Kd)
T5 construct: made in house; host or cells: E. coli BL21-derived host (T7 phage) or HEK-293
Method: as §1, §2, §3, §4

PIK3C2G = target: T6, PIK3C2G (Homo sapiens, UniProt O75747); experiment: Lipid kinase binding assay (Kd)
T6 construct: made in house; host or cells: E. coli BL21-derived host (T7 phage) or HEK-293
Method: as §1, §2, §3, §4

PIK3CB = target: T7, PIK3CB (Homo sapiens, UniProt P42338); experiment: Lipid kinase binding assay (Kd)
T7 construct: made in house; host or cells: E. coli BL21-derived host (T7 phage) or HEK-293
Method: as §1, §2, §3, §4

PIP5K2C = target: T8, PIP5K2C (Homo sapiens, UniProt Q8TBX8); experiment: Lipid kinase binding assay (Kd)
T8 construct: made in house; host or cells: E. coli BL21-derived host (T7 phage) or HEK-293
Method: as §1, §2, §3, §4

PIK3C3 = target: T9, PIK3C3 (Homo sapiens, UniProt Q8NEB9); experiment: Lipid kinase binding assay (Kd)
T9 construct: made in house; host or cells: E. coli BL21-derived host (T7 phage) or HEK-293
Method: as §1, §2, §3, §4

PIK3CD = target: T10, PIK3CD (Homo sapiens, UniProt O00329); experiment: Lipid kinase binding assay (Kd)
T10 construct: made in house; host or cells: E. coli BL21-derived host (T7 phage) or HEK-293
Method: as §1, §2, §3, §4

[1] = test system: RT-112, RT4 and T24 cells; experiment: MTT assay, bladder cancer cells with different FGFR3 status; format: cell-based; details: 72 h, FIG. 1A
Method: Cell viability was assessed the MTT assay. […] Data are expressed as means±S.D. (***P<0.001 compares to control group).
(§5) BGJ-398, a known selective inhibitor of FGFR1 to FGFR3, was included as a reference compound. […] The major downstream pathways of FGFRs are MAPK, PI3K/AKT, and PLC-γ. RT-112 cells, which express FGFR3-TACC3, are reportedly unable to activate PLCγ due to a deletion of the last exon of FGFR3.

FGFR signaling = experiment: Western blot of FGFR signaling in RT-112 cells; format: cell-based
Excerpt: as §5

HT-29 = experiment: MTT assay, cell viability; format: cell-based; details: Homo sapiens; HT-29, Colorectal, 72 hours; read-out: IC50 (μM, Mean ± SD)
Method: (§6) Cells were cultured in RPMI-1640 (RT-112, KMS-11, SNU-16, HT-29, HCT-116, NCI—H520, Hep3B, PLC/PRF/5, HL-60, MOLT-4) and DMEM (HepG2, MCF-7, MDA-MB-231) with 10% FBS (v/v) and Penicillin/Streptomycin (100 U/ml). FU-DDLS-1 cell line was maintained in DMEM:F12 medium with 10% FBS. LiSa-2 cell line was maintained in IMDM/RPMI-1640 in a 4:1 ratio supplemented with 10% FBS, 2 mmol/L L-glutamine, and 0.1 mg/mL gentamicin. Human umbilical vein endothelial cells (HUVECs) were grown to confluence on 1% collagen, and maintained in 90% Medium 199 with 25 U/ml heparin, 30 μg/ml endothelial cell growth supplement (ECGS) adjusted to contain 1.5 g/L sodium bicarbonate, 10% FBS and Penicillin/Streptomycin (100 U/ml) Cultures were maintained at 37° C. in a humidified atmosphere of 5% CO2/95% air.
(§7) Cells were seeded in 96-well plates (5,000 cells/well) and incubated overnight for attachment, and were then treated with indicated agents in 10% FBS-supplemented medium for 72 hours. The medium was replaced with MTT (0.5 mg/mL) at 37° C. for 1 hours. After removal of medium, the cells were lysed with 100 μL per well dimethyl sulfoxide (DMSO), and absorbance at 550 nm was measured with microplate reader. The relative cell viability (%) was expressed as a percentage relative to a DMSO control cells.

PLC/PRF/5 = experiment: MTT assay, cell viability; format: cell-based; details: PLC5, 5 uM, 72 hours
Method: as §6, §7

MOLT-4 = experiment: MTT assay, cell viability; format: cell-based; details: Homo sapiens; MOLT-4, ALL, 72 hours; read-out: IC50 (μM, Mean ± SD)
Method: as §6, §7

RT-112 = experiment: MTT assay, cell viability; format: cell-based; details: 72 hours
Method: as §6, §7

Hep3B = experiment: MTT assay, cell viability; format: cell-based; details: 5 uM, 72 hours
Method: as §6, §7

SNU-16 = experiment: MTT assay, cell viability; format: cell-based; details: 72 hours
Method: as §6, §7

SRPK3 = target: T11, SRPK3 (Homo sapiens, UniProt Q9UPE1); experiment: Kinase binding assay (Kd)
T11 construct: made in house; host or cells: E. coli BL21-derived host (T7 phage) or HEK-293
Method: as §1, §2, §3, §4

T10 sequence (O00329 whole entry): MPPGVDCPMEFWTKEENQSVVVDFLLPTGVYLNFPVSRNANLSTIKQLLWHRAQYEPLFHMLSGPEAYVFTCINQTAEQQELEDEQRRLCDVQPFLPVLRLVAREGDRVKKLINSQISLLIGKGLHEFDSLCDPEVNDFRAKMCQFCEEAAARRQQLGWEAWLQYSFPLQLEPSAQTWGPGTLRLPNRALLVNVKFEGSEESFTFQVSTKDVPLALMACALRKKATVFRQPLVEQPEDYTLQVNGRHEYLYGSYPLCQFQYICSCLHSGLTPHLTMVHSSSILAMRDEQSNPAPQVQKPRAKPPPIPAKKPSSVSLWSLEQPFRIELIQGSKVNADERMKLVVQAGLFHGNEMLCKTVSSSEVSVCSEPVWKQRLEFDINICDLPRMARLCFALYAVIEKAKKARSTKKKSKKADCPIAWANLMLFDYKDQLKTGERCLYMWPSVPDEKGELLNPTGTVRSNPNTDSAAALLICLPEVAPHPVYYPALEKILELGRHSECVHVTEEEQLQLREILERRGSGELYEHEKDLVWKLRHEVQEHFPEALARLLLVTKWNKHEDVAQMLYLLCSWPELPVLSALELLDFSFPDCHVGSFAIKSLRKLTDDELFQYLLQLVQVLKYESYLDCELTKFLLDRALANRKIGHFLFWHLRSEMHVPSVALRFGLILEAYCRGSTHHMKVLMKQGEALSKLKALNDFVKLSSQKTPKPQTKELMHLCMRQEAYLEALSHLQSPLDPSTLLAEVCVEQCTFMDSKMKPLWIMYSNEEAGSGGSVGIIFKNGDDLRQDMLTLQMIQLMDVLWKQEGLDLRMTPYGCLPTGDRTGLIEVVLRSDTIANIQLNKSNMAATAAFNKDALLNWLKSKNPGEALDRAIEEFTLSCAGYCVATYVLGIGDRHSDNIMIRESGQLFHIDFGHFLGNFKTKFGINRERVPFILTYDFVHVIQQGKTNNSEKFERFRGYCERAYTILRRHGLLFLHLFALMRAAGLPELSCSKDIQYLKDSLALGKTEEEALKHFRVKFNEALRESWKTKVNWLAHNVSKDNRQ
T8 sequence (Q8TBX8 whole entry): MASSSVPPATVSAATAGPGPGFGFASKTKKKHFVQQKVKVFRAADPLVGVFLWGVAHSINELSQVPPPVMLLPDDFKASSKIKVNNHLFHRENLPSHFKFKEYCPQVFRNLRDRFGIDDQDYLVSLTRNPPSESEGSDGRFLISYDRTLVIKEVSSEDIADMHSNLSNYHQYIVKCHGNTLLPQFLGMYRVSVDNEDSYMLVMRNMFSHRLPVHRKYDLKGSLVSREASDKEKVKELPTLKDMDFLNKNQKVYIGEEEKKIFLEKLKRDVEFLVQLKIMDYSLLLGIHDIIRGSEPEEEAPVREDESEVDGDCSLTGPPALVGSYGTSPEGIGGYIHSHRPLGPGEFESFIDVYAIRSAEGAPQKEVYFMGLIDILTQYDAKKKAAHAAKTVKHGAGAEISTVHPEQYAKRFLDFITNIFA
T7 sequence (P42338 whole entry): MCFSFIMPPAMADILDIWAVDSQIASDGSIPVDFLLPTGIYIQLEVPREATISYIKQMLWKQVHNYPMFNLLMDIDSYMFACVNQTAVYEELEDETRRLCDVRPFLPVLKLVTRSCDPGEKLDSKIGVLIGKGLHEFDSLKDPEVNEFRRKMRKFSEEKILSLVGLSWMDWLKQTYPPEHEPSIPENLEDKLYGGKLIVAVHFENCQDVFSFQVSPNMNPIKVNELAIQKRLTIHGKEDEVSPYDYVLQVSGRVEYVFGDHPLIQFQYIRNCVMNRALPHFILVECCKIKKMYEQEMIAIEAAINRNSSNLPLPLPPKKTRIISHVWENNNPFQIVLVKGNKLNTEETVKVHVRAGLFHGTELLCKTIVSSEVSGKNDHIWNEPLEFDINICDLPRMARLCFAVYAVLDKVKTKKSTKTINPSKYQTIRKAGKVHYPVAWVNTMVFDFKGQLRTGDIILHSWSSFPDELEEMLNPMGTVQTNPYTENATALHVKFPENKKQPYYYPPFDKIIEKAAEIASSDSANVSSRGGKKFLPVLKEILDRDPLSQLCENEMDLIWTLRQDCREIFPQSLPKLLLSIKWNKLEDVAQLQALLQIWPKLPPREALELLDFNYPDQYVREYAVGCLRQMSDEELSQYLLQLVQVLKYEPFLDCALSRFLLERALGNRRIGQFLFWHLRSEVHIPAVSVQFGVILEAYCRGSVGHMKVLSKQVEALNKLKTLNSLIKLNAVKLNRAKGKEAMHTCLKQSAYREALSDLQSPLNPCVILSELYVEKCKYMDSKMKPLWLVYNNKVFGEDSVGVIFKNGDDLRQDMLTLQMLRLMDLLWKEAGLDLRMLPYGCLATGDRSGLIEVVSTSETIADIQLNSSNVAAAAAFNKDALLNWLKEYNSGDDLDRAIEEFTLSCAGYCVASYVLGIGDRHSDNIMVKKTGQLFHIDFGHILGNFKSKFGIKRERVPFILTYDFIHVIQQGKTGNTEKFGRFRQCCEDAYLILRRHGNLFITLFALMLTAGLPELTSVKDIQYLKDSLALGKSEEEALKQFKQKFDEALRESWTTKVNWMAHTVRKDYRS
T4 sequence (P78356 whole entry): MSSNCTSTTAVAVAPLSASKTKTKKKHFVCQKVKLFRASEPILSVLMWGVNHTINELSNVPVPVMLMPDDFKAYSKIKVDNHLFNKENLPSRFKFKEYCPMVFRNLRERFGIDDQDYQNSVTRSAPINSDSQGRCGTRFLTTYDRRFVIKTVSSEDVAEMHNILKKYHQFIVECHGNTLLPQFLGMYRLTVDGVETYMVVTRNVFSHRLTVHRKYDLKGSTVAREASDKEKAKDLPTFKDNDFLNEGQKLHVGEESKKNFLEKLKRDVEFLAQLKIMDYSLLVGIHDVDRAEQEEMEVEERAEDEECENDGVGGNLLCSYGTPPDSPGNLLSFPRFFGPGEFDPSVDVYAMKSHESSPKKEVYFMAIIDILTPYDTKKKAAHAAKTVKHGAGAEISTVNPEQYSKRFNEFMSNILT
T6 sequence (O75747 whole entry): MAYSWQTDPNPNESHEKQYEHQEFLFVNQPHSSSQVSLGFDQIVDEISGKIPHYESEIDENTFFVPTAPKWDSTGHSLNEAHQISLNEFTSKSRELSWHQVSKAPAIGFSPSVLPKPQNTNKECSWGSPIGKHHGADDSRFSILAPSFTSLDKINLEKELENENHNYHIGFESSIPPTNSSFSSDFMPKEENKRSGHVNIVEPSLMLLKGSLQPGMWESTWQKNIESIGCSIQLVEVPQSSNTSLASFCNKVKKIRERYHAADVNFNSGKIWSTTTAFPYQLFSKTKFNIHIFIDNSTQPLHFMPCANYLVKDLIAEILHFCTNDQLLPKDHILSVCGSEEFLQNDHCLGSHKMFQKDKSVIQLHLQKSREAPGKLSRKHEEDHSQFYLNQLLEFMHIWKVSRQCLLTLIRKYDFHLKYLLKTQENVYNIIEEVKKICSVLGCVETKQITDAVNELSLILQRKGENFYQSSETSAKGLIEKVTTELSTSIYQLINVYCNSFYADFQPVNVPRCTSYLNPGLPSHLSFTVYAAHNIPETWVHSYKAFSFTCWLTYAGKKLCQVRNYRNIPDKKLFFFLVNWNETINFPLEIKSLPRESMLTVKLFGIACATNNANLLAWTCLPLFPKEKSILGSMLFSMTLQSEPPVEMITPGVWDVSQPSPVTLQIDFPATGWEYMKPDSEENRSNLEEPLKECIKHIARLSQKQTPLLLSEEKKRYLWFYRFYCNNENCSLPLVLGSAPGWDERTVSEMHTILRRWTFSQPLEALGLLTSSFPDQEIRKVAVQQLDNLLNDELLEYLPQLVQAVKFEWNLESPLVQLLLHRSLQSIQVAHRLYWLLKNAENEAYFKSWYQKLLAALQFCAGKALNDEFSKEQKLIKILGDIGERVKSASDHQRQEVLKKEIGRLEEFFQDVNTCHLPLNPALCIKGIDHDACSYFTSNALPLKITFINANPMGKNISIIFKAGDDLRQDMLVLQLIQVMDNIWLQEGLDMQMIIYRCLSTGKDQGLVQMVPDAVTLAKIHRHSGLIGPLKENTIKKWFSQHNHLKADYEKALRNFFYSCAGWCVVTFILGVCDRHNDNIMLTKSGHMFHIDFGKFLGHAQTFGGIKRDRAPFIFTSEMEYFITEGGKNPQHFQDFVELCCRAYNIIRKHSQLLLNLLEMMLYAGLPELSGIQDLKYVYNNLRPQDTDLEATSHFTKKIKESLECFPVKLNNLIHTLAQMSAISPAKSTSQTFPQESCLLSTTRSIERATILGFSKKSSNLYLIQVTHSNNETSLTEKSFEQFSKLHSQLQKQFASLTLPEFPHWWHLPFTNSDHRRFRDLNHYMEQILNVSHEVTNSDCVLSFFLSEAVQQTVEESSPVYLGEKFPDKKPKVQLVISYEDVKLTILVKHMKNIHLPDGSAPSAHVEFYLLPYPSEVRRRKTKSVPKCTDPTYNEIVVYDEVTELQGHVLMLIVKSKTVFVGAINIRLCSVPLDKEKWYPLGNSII
T11 sequence (Q9UPE1 whole entry): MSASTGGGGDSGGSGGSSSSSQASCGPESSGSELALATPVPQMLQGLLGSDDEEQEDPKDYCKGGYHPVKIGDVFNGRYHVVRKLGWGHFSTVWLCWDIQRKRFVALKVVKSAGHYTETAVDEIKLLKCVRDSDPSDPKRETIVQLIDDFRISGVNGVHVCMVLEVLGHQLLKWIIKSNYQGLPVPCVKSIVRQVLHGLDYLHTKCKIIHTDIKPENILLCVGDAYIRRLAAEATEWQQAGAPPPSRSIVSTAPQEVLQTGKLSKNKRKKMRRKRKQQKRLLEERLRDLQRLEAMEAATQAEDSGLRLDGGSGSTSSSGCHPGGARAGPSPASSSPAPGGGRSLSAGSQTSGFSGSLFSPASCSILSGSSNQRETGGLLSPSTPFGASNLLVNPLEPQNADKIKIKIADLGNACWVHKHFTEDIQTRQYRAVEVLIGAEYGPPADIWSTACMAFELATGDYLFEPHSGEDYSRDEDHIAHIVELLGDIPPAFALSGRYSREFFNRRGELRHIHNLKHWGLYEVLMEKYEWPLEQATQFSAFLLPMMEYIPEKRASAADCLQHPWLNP

## CCN1CCN(c2ccc(Nc3ncnc(N(C)C(=O)Nc4c(Cl)c(OC)c(Cl)c(OC)c4Cl)n3)cc2)CC1 [MPT0L145, 1-(4-((4-(4-ethylpiperazin-1-yl)phenyl)amino)-1,3,5-triazin-2-yl)-1-methyl-3-(2,4,6-trichloro-3,5-dimethoxyphenyl)urea]
RT-112 cells
  cyclin E levels: marked decrease
  p16 level: slight increase
PIP5K1A
  Kd: > 10 µM
PIKFYVE
  Kd: 2.6 µM
PIK3C2B
  Kd: 1 µM
PIP5K2B
  Kd: > 10 µM
PIP5K1C
  Kd: > 10 µM
PIK3C2G
  Kd: > 10 µM
PIK3CB
  Kd: > 10 µM
PIP5K2C
  Kd: > 10 µM
PIK3C3
  Kd: 0.00053 µM
PIK3CD
  Kd: > 10 µM
[1]
  sensitivity of FGFR3-TACC3 fusion cells (RT-112, RT4) versus normal FGFR3 status (T24): more sensitive
FGFR signaling; 1 to 4 h, FIG. 2B, 2C
  inhibiting AKT phosphorylation: better potency than BGJ-398
FGFR signaling; 1 h, FIG. 2A
  auto-phosphorylation of FGFR1 and FGFR3 and docking protein FRS2: exerted inhibitory activity
FGFR signaling; 1 h, concentration-dependent, FIG. 2B
  phosphorylation of ERK: inhibited
FGFR signaling; 8 h, FIG. 2D
  phosphorylation of ERK and AKT: fully repressed
HT-29
  IC50: 2.49 ± 0.29 µM
PLC/PRF/5
  Viability (% of control cells) PLC5 (5 uM) Mean: 20.6 % of control cells
MOLT-4
  IC50: 3.7 ± 0.2 µM
RT-112; RT-112, 5 uM
  Viability (% of control cells) RT-112 (5 uM) Mean: 33.4 % of control cells
RT-112; RT-112, 10 uM
  Viability (% of control cells) RT-112 (10 uM) Mean: 8.5 % of control cells
Hep3B
  Viability (% of control cells) Hep3B (5 uM) Mean: 66.2 % of control cells
SNU-16
  Viability (% of control cells) SNU-16 (5 uM) Mean: 36.9 % of control cells
SRPK3
  Kd: > 10 µM
